Values quoted from earlier work as cited in US6656915B1, “Inhibiting T-cell proliferation” (Biocryst Pharmaceuticals, Inc., priority 1999, dated 2003).
Like-named read-outs stand apart in the source and are kept apart here. Blank lines part the entries; values can stand above or below the compound they belong to.

Columns and labels:
[1] = upon being administered to a host, alone
[2] = test system: peripheral blood lymphocytes; conditions: dogs
[3] = test system: peripheral blood lymphocytes; conditions: rats
[4] = test system: human T-cells (CCRF-CEM and Molt-4 cells); conditions: given with 2′-deoxyguanosine; CCRF-CEM and Molt-4 cells in cultures
[5] = test system: T-cells; conditions: rats; given with 2′-deoxyguanosine
[6] = biological target: PNP (Homo sapiens, UniProt P00491); conditions: humans; indicating effective inhibition of PNP
[7] = test system: T-cells; conditions: humans; PNP inhibitor without exogenous 2′-deoxyguanosine
[8] = 2′-deoxyguanosine alone, without PNP inhibition

PNP, sequence (P00491 whole entry): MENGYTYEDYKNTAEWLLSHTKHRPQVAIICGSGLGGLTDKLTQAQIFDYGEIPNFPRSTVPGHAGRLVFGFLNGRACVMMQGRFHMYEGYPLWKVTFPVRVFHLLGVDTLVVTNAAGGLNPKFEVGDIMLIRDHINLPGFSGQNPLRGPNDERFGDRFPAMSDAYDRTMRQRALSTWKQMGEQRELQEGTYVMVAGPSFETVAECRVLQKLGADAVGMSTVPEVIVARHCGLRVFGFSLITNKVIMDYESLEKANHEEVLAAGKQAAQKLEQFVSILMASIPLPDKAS

- degradation of exogenous 2′-deoxyguanosine [1]: rapidly degrades
SMILES: Nc1nc2c(ncn2[C@H]2C[C@H](O)[C@@H](CO)O2)c(=O)[nH]1 [2′-deoxyguanosine]
- cell counts (lymphopenia) [2, 8]: did not significantly decrease cell counts
- cell counts (lymphopenia) [3, 8]: did not significantly decrease cell counts

SMILES: Nc1nc2nc(N)[nH]c2c(=O)[nH]1 [8-Aminoguanine]
- proliferation of human T-cells [4]: inhibits the proliferation

SMILES: Nc1nc2c(nc(N)n2[C@@H]2O[C@H](CO)[C@@H](O)[C@H]2O)c(=O)[nH]1 [8-Aminoguanosine, reference compound]
- peripheral blood lymphocytes ([2]; given with 2′-deoxyguanosine): profound fall
- levels of 2′-deoxyguanosine triphosphate (dGTP) in T-cells [5]: increased levels
- peripheral blood lymphocytes ([3]; given with 2′-deoxyguanosine): profound fall

- plasma inosine levels [6]: increases plasma inosine levels
SMILES: Nc1nc2c(Cc3cccnc3)c[nH]c2c(=O)[nH]1 [9-(3-Pyridylmethyl)-9-deazaguanine]
- T-cell counts [7]: did not reduce T-cell counts
